# Reference: patent publication US11357774B2, “Use of a quinoline sulfonyl compound for treatment of inflammation, inflammatory disorders, autoimmune disorders and malaria” (priority 2019, dated 2022)
# Experiments:
# [1] = tested on: SW-982 cells; test: CCK-8 cell viability, SW-982 cells; assay type: cell-based; settings: SW-982, 6 hours with IL-1β 1 ng/mL; VR23 5 μM, HCQ 30 μM
# Protocol: Dunnett's test was performed to assess if there are significant differences in cell viability compared to the non-treatment control group. The values presented are mean±SEM (n=3).
# The CCK-8 assay was used to count viable cells under the various treatment conditions. Briefly, cells were cultured in 11 columns of a 96-well clustered plate, with 5,000 cells in 100 μL of culture medium per well, excluding one column for a media-only control. The plate was incubated overnight at 37° C. in the humidified conditions, followed by treatment with test compounds diluted in the culture medium (10 μL). Each column was treated with a different condition so that each treatment could have 8 repeats. […] The absorbance was measured using an automatic plate reader (Synergy H4 Hybrid Multi-Mode Microplate Reader, BioTek, Montreal, Canada) at 450 nm wavelength. The cell viability of each treatment sample was determined by using the following equation (%)=(Abstrtmt-Absmedia)/(AbsuT-Absmedia)*100, where Abstrtmt is the absorbance value of cells with the various treatment conditions; Absmedia is the absorbance of the well containing media only; AbsuT is the absorbance of the wells with untreated cells. […]
# [2] = tested on: BALB/c mice with ALI caused by LPS; test: LPS-induced acute lung injury in mice, bronchoalveolar fluid cell counts and TNF-α; assay type: in vivo, mouse; settings: 24 hours, VR23 30 mg/kg intraperitoneally
# Excerpt: (§1) The enzyme-linked immunosorbent assay (ELISA) is a quantitative measurement based on sandwich-based enzyme linking, using a protein-specific capture antibody to determine the levels of single or multiple chemokines and cytokines.
# Six to eight week old female BALB/c mice strain 028 (Charles River Laboratories, QC, Canada) were fed regularly with laboratory chow and water upon arrival at the Laurentian University Animal Care Facility (Sudbury, ON, Canada). To determine a useful dose of LPS, three mice per group were treated for 24 hours with the following three different conditions: (i) no LPS, (ii) 0.25 mg of LPS per kg of body weight, and (iii) 0.50 mg of LPS per kg of body weight. […] After the animals were sacrificed, the bronchoalveolar lavage fluid (BALF) of each mouse was collected and analyzed for LPS-induced inflammatory responses. […] Bronchoalveolar lavage fluid was collected and the number of cells infiltrated into the bronchoalveolar fluid were counted (FIG. 2). […]
# Toward this goal, a useful LPS dose to induce TNF-α in the mouse bronchoalveolar fluid was first obtained. […] To illustrate the anti-inflammatory property of VR23, the level of TNF-α in the BALF was measured at 24-hour post-treatment. […] The levels of TNF-α were determined at 24-hour post-LPS stimulation (0.4 mg/kg), in the absence (controls) or presence of DEX (4 mg/kg) or VR23 (30 mg/kg).
# [3] = tested on: human fibroblast-like synoviocytes from rheumatoid arthritis patients (HFLS-RA); test: Viability test, HFLS-RA cells; assay type: cell-based; settings: 6 hours, IL-1β 10 ng/mL, VR23 1.25-5.0 μM, HCQ 7.5-30 μM
# Protocol: The values presented are the mean±SEM (n=3).
# The CCK-8 assay was used to count viable cells under the various treatment conditions. Briefly, cells were cultured in 11 columns of a 96-well clustered plate, with 5,000 cells in 100 μL of culture medium per well, excluding one column for a media-only control. The plate was incubated overnight at 37° C. in the humidified conditions, followed by treatment with test compounds diluted in the culture medium (10 μL). Each column was treated with a different condition so that each treatment could have 8 repeats. […] The absorbance was measured using an automatic plate reader (Synergy H4 Hybrid Multi-Mode Microplate Reader, BioTek, Montreal, Canada) at 450 nm wavelength. The cell viability of each treatment sample was determined by using the following equation (%)=(Abstrtmt-Absmedia)/(AbsuT-Absmedia)*100, where Abstrtmt is the absorbance value of cells with the various treatment conditions; Absmedia is the absorbance of the well containing media only; AbsuT is the absorbance of the wells with untreated cells.
# This finding was extended to human cells relevant to autoimmune diseases. […] Cytokine levels in cell culture supernatants were determined by a single-analyte ELISA. […] The cytokine secretion was measured in cell culture supernatants by a single-analyte ELISA.
# [4] = tested on: IL-6 secretion in HFLS-N cells; test: IL-6 secretion in stimulated HFLS-N cells (ELISA); assay type: cell-based, human; settings: 6 hours
# Protocol: The mean±SEM (n=3) values were determined by a Dunnett's test.
# The values presented are the mean±SEM (n=2).
# as §1
# This finding was extended to human cells relevant to autoimmune diseases. Human fibroblast-like synoviocytes (HFLS) are present in the synovial fluid of joint capsules and produce harmful molecules that contribute to joint destruction and the exacerbation of the disease in rheumatoid arthritis patients. […] The cells were then stimulated with IL-1β (FIG. 16) or LPS (FIG. 17), in the absence (control; IL-1β only) or presence of VR23 or HCQ. HCQ was included for comparison because it is often used to treat rheumatoid arthritis. […] For “VR23 only” samples, 5 μM VR23 was used. Fifty thousand HFLS cells per mL were used for the experiment. Cytokine levels in cell culture supernatants were determined by a single-analyte ELISA. […] Fifty thousand HFLS cells per mL were used for the experiment. The cytokine secretion was measured in cell culture supernatants by a single-analyte ELISA.
smiles,measurement,setting,value
"O=[N+]([O-])c1ccc(S(=O)(=O)N2CCN(c3ccnc4cc(Cl)ccc34)CC2)c([N+](=O)[O-])c1 [VR23, 7-chloro-4-(4-(2,4-dinitrophenylsulfonyl)piperazin-1-yl)quinoline]",cell viability (CCK-8),[1],did not significantly differ from the untreated cells
same,total number of cells recruited into the bronchoalveolar space,[2]; LPS 0.4 mg/kg intranasally,completely prevented
same,level of TNF-α in bronchoalveolar lavage fluid,[2]; LPS 0.4 mg/kg,effectively reduces the level of TNF-α
same,cell viability,[3],none of the conditions examined significantly affected the viability
same,"IL-6 secretion, dose dependence","[4]; IL-1β 10 ng/mL, VR23 2.5-10 μM, HCQ 15 or 30 μM",decreases in a dose dependent manner
same,secretion of IL-6,[4]; LPS 100 ng/mL,rate of the decrease is much lower
